Results taken from patent US20230356105A1, “TETRAAZADODECANE BASED CHELATING AGENTS FOR SEPARATION OF RARE EARTH ELEMENTS AND METHOD THEREFOR” (Ustav Organicke Chemie a Biochemie AV CR V.V.I., priority 2020, published 2023).
One block for each molecule: values may come before it.

Legend:
[1] = Use of additives to improve separation of Nd/Dy mixture by precipitation with L5 (Example 18); format: physicochemical; details: 11 mM L5
Protocol: Stock solutions were pipetted into plastic 1×1 cm cuvettes to prepare reaction mixtures with concentrations as follows: • 1. […] 5 mM NdCl3 • 3. 5 mM DyCl3 • 4. 500 mM MOPS pH=7 • 5. the additive of interest, in a variable concentration; if possible, stock solutions were prepared from Na^+ salt forms of the compound; if not, the stock solutions were titrated by NaOH/HCl to pH=7 prior to addition (see Table 12 for additives and concentrations)
These aqueous reaction mixtures, each prepared to a total volume of 2.0 mL with the addition of water as necessary, were mixed by the use of a PTFE-coated stir bar on a magnetic stirrer. The cuvettes were sealed with transparent tape to prevent evaporation overnight. The reaction mixtures were stirred for 18 hours, at which point 500 μL aliquots of each reaction mixture were transferred into plastic 2 mL Eppendorf tubes and centrifuged. The supernatants were carefully pipetted out and transferred to a new set of tubes. The precipitate was dissolved by addition of 500 μL 1M HCl. The absolute concentration of Nd and Dy in each supernatant and precipitate was determined by ICP-OES.

[2] = Removal of additive from remaining solution after precipitation by ultrafiltration (Example 25); format: physicochemical

Precipitate concentration [mM] Dy ([1]; additive 5 mM): 2.59 mM | Precipitate concentration [mM] Nd ([1]; additive 5 mM): 4.32 mM | Supernatant concentration [mM] Dy ([1]; additive 5 mM): 1.55 mM | Supernatant concentration [mM] Nd ([1]; additive 5 mM): 0.10 mM | Precipitate concentration [mM] Dy ([1]; additive 10 mM): 1.50 mM | Precipitate concentration [mM] Nd ([1]; additive 10 mM): 4.03 mM | Supernatant concentration [mM] Dy ([1]; additive 10 mM): 3.03 mM | Supernatant concentration [mM] Nd ([1]; additive 10 mM): 0.19 mM | Precipitate concentration [mM] Dy ([1]; additive 15 mM): 1.18 mM | Precipitate concentration [mM] Nd ([1]; additive 15 mM): 4.33 mM | Supernatant concentration [mM] Dy ([1]; additive 15 mM): 3.37 mM | Supernatant concentration [mM] Nd ([1]; additive 15 mM): 0.33 mM | Precipitate concentration [mM] Dy ([1]; additive 20 mM): 0.81 mM | Precipitate concentration [mM] Nd ([1]; additive 20 mM): 3.78 mM | Supernatant concentration [mM] Dy ([1]; additive 20 mM): 3.69 mM | Supernatant concentration [mM] Nd ([1]; additive 20 mM): 0.60 mM | % of initial [additive] in filtrate ([2]; initial [additive] 30.4 mM): 3%
SMILES: CC(C)(O)C(=O)O [α-HIBA, alpha-hydroxyisobutyric acid]

Precipitate concentration [mM] Dy ([1]; additive 50 mM): 2.43 mM | Precipitate concentration [mM] Nd ([1]; additive 50 mM): 4.97 mM | Supernatant concentration [mM] Dy ([1]; additive 50 mM): 3.05 mM | Supernatant concentration [mM] Nd ([1]; additive 50 mM): 0.33 mM | Precipitate concentration [mM] Dy ([1]; additive 100 mM): 1.74 mM | Precipitate concentration [mM] Nd ([1]; additive 100 mM): 4.85 mM | Supernatant concentration [mM] Dy ([1]; additive 100 mM): 3.74 mM | Supernatant concentration [mM] Nd ([1]; additive 100 mM): 0.30 mM | Precipitate concentration [mM] Dy ([1]; additive 250 mM): 1.05 mM | Precipitate concentration [mM] Nd ([1]; additive 250 mM): 4.04 mM | Supernatant concentration [mM] Dy ([1]; additive 250 mM): 4.37 mM | Supernatant concentration [mM] Nd ([1]; additive 250 mM): 1.17 mM | Precipitate concentration [mM] Dy ([1]; additive 500 mM): 0.49 mM | Precipitate concentration [mM] Nd ([1]; additive 500 mM): 0.52 mM | Supernatant concentration [mM] Dy ([1]; additive 500 mM): 4.69 mM | Supernatant concentration [mM] Nd ([1]; additive 500 mM): 4.62 mM | % of initial [additive] in filtrate ([2]; initial [additive] 76 mM): 83%
SMILES: CC(=O)O [acetate]
